In paper PMC4457528, “Identification of Novel Small Molecule Inhibitors of Oncogenic RET Kinase” (PLoS ONE, 2015):

Experiments:
Test in all cases: KinomeScan kinase panel, single concentration 10 µM
Type in all cases: binding
KinomeScan kinase panel [1] = biological target: T1, KinomeScan kinase panel (Homo sapiens, UniProt Q14164); conditions: IKK-epsilon, 10 µM; read-out: score (%)
T1 construct: purchased DiscoveRx (KinomeScan)
T1 sequence (Q14164 1-716): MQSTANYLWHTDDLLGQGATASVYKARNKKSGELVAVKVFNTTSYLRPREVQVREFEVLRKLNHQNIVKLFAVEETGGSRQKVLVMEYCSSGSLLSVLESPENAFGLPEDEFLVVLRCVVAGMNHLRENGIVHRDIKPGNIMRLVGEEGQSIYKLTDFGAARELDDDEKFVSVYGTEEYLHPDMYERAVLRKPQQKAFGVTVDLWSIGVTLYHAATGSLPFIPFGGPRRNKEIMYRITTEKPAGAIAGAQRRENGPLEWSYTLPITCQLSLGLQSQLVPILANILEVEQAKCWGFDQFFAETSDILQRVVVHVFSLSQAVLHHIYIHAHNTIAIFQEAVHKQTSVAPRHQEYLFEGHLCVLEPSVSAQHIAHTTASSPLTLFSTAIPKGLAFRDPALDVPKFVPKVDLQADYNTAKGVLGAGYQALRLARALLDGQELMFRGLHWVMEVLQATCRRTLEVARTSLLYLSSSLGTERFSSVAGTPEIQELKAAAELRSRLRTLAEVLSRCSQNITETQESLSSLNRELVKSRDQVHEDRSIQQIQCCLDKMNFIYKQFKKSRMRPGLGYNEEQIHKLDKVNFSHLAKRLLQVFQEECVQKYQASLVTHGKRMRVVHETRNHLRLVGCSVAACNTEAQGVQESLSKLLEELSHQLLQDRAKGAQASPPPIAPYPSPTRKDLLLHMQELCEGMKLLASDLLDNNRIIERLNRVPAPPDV

KinomeScan kinase panel [2] = biological target: T2, KinomeScan kinase panel (Homo sapiens, UniProt Q8NFD2); conditions: ANKK1, 10 µM; read-out: score (%)
T2 construct: purchased DiscoveRx (KinomeScan)
T2 sequence (Q8NFD2 1-765): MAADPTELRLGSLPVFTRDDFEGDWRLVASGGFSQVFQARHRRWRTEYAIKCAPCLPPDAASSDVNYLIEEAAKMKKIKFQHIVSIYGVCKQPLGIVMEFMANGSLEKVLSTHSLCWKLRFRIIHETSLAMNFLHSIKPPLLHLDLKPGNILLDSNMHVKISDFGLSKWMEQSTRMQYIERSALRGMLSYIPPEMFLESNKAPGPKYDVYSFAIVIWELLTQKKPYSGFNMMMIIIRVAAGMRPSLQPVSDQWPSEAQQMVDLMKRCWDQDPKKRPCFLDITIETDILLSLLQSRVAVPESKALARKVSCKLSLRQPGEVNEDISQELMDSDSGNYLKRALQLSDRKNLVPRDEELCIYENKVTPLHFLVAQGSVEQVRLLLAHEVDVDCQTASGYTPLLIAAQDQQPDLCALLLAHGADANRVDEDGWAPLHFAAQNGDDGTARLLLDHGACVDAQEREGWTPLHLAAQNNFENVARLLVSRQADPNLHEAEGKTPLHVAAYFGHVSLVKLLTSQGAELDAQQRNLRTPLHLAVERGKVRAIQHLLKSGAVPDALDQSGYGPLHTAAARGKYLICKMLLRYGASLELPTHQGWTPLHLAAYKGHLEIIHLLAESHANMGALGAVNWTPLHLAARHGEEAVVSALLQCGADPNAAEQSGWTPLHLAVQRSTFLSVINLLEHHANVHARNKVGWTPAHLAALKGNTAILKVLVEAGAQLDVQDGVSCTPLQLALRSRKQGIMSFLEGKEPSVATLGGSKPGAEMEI

KinomeScan kinase panel [3] = biological target: T3, KinomeScan kinase panel (Homo sapiens, UniProt Q99755); conditions: PIP5K1A, 10 µM; read-out: score (%)
T3 construct: purchased DiscoveRx (KinomeScan)
T3 sequence (Q99755 whole entry): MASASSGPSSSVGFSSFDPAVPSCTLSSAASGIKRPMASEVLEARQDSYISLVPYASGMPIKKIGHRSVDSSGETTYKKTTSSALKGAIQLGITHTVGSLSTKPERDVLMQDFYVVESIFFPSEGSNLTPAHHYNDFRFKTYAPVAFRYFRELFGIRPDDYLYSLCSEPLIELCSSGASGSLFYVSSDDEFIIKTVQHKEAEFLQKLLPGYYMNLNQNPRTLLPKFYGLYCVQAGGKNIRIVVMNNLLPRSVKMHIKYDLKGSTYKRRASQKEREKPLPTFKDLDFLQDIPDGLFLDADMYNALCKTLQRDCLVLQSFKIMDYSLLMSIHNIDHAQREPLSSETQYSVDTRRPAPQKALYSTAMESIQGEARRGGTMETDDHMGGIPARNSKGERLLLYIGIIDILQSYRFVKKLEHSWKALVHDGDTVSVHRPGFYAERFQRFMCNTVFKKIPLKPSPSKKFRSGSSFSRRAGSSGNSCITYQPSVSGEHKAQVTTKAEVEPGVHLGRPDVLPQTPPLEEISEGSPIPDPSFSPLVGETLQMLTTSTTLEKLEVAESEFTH

KinomeScan kinase panel [4] = biological target: T4, KinomeScan kinase panel (Homo sapiens, UniProt Q96L34); conditions: MARK4, 10 µM
T4 construct: purchased DiscoveRx (KinomeScan)
T4 sequence (Q96L34 1-752): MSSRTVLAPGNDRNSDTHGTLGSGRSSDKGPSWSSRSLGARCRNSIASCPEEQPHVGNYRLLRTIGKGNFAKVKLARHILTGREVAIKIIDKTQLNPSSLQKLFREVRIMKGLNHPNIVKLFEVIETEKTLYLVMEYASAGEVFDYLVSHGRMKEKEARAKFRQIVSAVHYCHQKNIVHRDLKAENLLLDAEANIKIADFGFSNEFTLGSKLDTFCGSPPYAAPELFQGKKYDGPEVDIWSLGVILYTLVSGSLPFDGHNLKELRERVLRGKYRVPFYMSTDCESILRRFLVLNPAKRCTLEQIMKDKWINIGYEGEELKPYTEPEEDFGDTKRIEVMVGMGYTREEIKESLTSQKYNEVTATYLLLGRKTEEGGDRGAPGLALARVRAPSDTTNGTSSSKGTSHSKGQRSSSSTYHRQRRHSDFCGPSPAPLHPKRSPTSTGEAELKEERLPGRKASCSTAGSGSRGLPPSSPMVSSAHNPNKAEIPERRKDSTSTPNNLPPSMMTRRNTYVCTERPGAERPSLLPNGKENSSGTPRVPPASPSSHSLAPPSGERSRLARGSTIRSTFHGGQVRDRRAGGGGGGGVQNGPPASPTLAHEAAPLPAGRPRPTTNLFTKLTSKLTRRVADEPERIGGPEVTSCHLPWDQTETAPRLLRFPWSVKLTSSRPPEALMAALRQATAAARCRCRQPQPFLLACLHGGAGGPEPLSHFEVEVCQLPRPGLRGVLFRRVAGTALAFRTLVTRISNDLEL

KinomeScan kinase panel [5] = biological target: T5, KinomeScan kinase panel (Homo sapiens, UniProt P36896); conditions: ACVR1B, 10 µM; read-out: score (%)
T5 construct: purchased DiscoveRx (KinomeScan)
T5 sequence (P36896 24-505): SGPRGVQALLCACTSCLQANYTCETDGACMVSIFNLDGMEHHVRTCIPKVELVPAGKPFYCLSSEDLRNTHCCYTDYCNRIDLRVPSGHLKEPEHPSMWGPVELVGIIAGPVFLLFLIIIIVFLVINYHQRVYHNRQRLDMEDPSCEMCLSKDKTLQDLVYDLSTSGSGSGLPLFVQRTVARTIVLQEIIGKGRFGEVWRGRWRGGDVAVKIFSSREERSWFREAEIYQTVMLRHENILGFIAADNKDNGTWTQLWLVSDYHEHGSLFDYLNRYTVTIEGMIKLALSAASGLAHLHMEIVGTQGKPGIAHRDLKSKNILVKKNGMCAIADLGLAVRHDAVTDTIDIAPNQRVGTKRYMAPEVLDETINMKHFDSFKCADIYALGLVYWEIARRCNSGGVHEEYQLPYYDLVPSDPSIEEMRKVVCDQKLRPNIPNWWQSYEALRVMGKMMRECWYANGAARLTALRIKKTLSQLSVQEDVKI

CCN1CCN(Cc2ccc(NC(=O)c3ccc(C)c(NC(=O)c4cncc(-c5cccs5)c4)c3)cc2C(F)(F)F)CC1 [ALW-II-41-27]
remaining binding at 10 µM (KinomeScan kinase panel [1]): > 30%
remaining binding at 10 µM (KinomeScan kinase panel [2]): 1.4%
remaining binding at 10 µM (KinomeScan kinase panel [3]): > 30%
score (%) (KinomeScan kinase panel [4]): nb (Hits values higher than 30% were considered negative (no binding: nb))
remaining binding at 10 µM (KinomeScan kinase panel [5]): > 30%

CCN1CCN(Cc2ccc(NC(=O)c3ccc(C)c(C#Cc4cccnc4)c3)cc2C(F)(F)F)CC1 [XMD15-44]
remaining binding at 10 µM (KinomeScan kinase panel [1]): > 30%
remaining binding at 10 µM (KinomeScan kinase panel [2]): 8.2%
remaining binding at 10 µM (KinomeScan kinase panel [3]): 79%
score (%) (KinomeScan kinase panel [4]): nb (Hits values higher than 30% were considered negative (no binding: nb))
remaining binding at 10 µM (KinomeScan kinase panel [5]): > 30%

CCN1CCN(Cc2ccc(NC(=O)c3ccc(C)c(/C=C/c4cnc5[nH]ccc5c4Cl)c3)cc2C(F)(F)F)CC1 [HG-6-63-01, (E)-3-(2-(4-chloro-1H-pyrrolo[2,3-b]pyridin-5-yl)vinyl)-N-(4-((4-ethylpiperazin-1-yl)methyl)-3-(trifluoromethyl)phenyl)-4-methylbenzamide]
remaining binding at 10 µM (KinomeScan kinase panel [1]): > 30%
remaining binding at 10 µM (KinomeScan kinase panel [2]): 0.4%
remaining binding at 10 µM (KinomeScan kinase panel [3]): 15%
score (%) (KinomeScan kinase panel [4]): 25%
remaining binding at 10 µM (KinomeScan kinase panel [5]): > 30%
